Source: US20230167467A1, “METHODS AND COMPOSITIONS FOR THE PRODUCTION OF ISOBUTENE” (University of Alaska Anchorage, priority 2020, published 2023)

System: Engineered strains of E. coli
Type: cell-based
[1] = after solvent exposure, vs positive control

SMILES: CCC(C)CC [3-methylpentane]
- expression of acid resistance genes (gad, adi families): downregulated
- expression of chaperone proteins groLS, spy, and dnaJK: highly upregulated
- expression of dihydroxyacetone kinase genes dhaKLM: upregulated
- expression of flagellar protein synthesis and assembly genes: downregulated
- expression of gadE and adiY: significantly downregulated
- expression of galactitol metabolism genes gatABD: upregulated
- expression of glpABC (glycerol to glycerone phosphate): upregulated
- expression of heat shock proteins and chaperones hslJORUV: strongest increases
- expression of ibpAB and clpAB (protein protection and repair): strongest increases
- expression of marABC (multiple antibiotic resistance): upregulated
- expression of nitrate reductase genes narGHJKP: upregulated
- expression of phage shock genes pspABCDE: highly upregulated
- change in expression of gene adiA [1]: −2.19 ± 0.86
- change in expression of gene adiC [1]: −1.60 ± 1.02
- change in expression of gene adiY [1]: −2.88 ± 0.66
- change in expression of gene bhsA [1]: 2.98 ± 0.60
- change in expression of gene bssR [1]: 1.81 ± 0.44
- change in expression of gene bssS [1]: 5.42 ± 0.84
- change in expression of gene clpA [1]: 2.69 ± 0.63
- change in expression of gene clpB [1]: 5.30 ± 0.69
- change in expression of gene clpP [1]: 1.74 ± 0.59
- change in expression of gene coaA [1]: −1.35 ± 0.88
- change in expression of gene coaD [1]: 1.13 ± 0.90
- change in expression of gene cspA [1]: −4.58 ± 0.58
- change in expression of gene cspB [1]: −4.38 ± 1.31
- change in expression of gene cspC [1]: −2.37 ± 0.90
- change in expression of gene cspD [1]: 2.53 ± 0.57
- change in expression of gene cspE [1]: −0.36 ± 0.63
- change in expression of gene cspF [1]: −3.22 ± 1.04
- change in expression of gene dhaK [1]: 4.32 ± 0.58
- change in expression of gene dhaL [1]: 3.43 ± 0.62
- change in expression of gene dnaJ [1]: 5.07 ± 0.69
- change in expression of gene dnaK [1]: 4.55 ± 0.66
- change in expression of gene fabA [1]: −0.74 ± 0.75
- change in expression of gene fabB [1]: 2.87 ± 0.66
- change in expression of gene fabD [1]: −0.97 ± 0.52
- change in expression of gene flgA [1]: −1.37 ± 1.53
- change in expression of gene flgB [1]: −3.25 ± 1.50
- change in expression of gene flgC [1]: −4.33 ± 1.93
- change in expression of gene flgD [1]: −3.56 ± 1.87
- change in expression of gene flgE [1]: −2.72 ± 1.17
- change in expression of gene flgF [1]: −2.66 ± 1.57
- change in expression of gene flgG [1]: −3.06 ± 1.48
- change in expression of gene flgH [1]: −2.28 ± 1.70
- change in expression of gene gabD [1]: 0.24 ± 1.31
- change in expression of gene gabP [1]: 1.14 ± 1.28
- change in expression of gene gabT [1]: 0.62 ± 1.27
- change in expression of gene gadA [1]: −1.66 ± 0.69
- change in expression of gene gadB [1]: −1.26 ± 0.80
- change in expression of gene gadC [1]: −0.31 ± 0.80
- change in expression of gene gadE [1]: −2.58 ± 0.60
- change in expression of gene gadW [1]: −2.78 ± 0.95
- change in expression of gene gadX [1]: −2.92 ± 0.57
- change in expression of gene gadY [1]: −4.93 ± 0.81
- change in expression of gene glpA [1]: 8.12 ± 0.87
- change in expression of gene glpB [1]: 5.89 ± 0.63
- change in expression of gene glpC [1]: 6.69 ± 0.79
- change in expression of gene groL [1]: 4.27 ± 0.57
- change in expression of gene groS [1]: 4.18 ± 0.50
- change in expression of gene hchA [1]: 1.65 ± 0.60
- change in expression of gene hslJ [1]: 2.40 ± 0.65
- change in expression of gene hslO [1]: 3.37 ± 0.64
- change in expression of gene hslR [1]: 3.53 ± 0.65
- change in expression of gene hslU [1]: 3.65 ± 0.55
- change in expression of gene hslV [1]: 3.32 ± 0.61
- change in expression of gene ibpA [1]: 8.01 ± 1.21
- change in expression of gene ibpB [1]: 9.01 ± 1.50
- change in expression of gene lhgO [1]: 1.21 ± 1.64
- change in expression of gene lipA [1]: 0.26 ± 0.60
- change in expression of gene lipB [1]: 0.71 ± 0.63
- change in expression of gene narG [1]: 4.24 ± 0.65
- change in expression of gene narH [1]: 3.41 ± 0.61
- change in expression of gene narI [1]: 2.28 ± 0.92
- change in expression of gene narJ [1]: 2.34 ± 0.68
- change in expression of gene narK [1]: 2.75 ± 0.84
- change in expression of gene potA [1]: −2.43 ± 0.80
- change in expression of gene potB [1]: −0.51 ± 1.28
- change in expression of gene potC [1]: −0.27 ± 1.18
- change in expression of gene pspA [1]: 9.23 ± 0.55
- change in expression of gene pspB [1]: 7.09 ± 0.68
- change in expression of gene rpoA [1]: 0.54 ± 0.44
- change in expression of gene rpoB [1]: 0.33 ± 0.40
- change in expression of gene rpoC [1]: 0.70 ± 0.39
- change in expression of gene rpoD [1]: 3.38 ± 0.70
- change in expression of gene rpoE [1]: −2.07 ± 0.62
- change in expression of gene rpoH [1]: 0.71 ± 0.52
- change in expression of gene rpoN [1]: −1.28 ± 0.49
- change in expression of gene rpoS [1]: 0.53 ± 0.47
- change in expression of gene rpoZ [1]: −1.07 ± 0.53
- change in expression of gene spy [1]: 4.73 ± 0.87
- change in expression of gene tatA [1]: −1.05 ± 0.51
- change in expression of gene tatB [1]: −0.93 ± 0.58
- change in expression of gene tatC [1]: −0.35 ± 1.08
- change in expression of gene tatD [1]: −1.73 ± 1.12
- change in expression of gene tatE [1]: 0.79 ± 0.63
- number of genes with significant changes in expression (vs control, Bon Ferroni corrected p-value<0.05): 414 genes
